Laboratory results as given in patent publication US6919470B2, “Aryl and heteroaryl sulfonates” (priority 2000, dated 2005).

Tests used:
rat [1] = test: Axotomy of sciatic branches in the rat (chronic pain model); format: in vivo; details: orally, acute administration, 60 minutes before the test
Experimental: 7. Axotomy of Sciatic Branches in the Rat (Chronic Pain Model)
Under pentobarbital anesthesia, the trifurcation of a sciatic nerve is exposed, and the peroneal and tibial branches are axotomized after the nerves have been ligated proximal of the axotomy site. Control animals undergo a sham operation. After the operation, the axotomized animals develop chronic mechanical allodynia and thermal hyperalgesia.
The mechanical allodynia is tested, comparing with sham-operated animals, with the aid of a pressure transducer (electronic von Frey anesthesiometer, IITC Inc.-Life Science Instruments, Woodland Hills, Calif., USA).
The thermal hyperalgesia can be determined by measuring the latency time within which a rat removes a paw from the area of a radiant heat source (plantar test, Ugo Basile (Milan)).
The substance was administered by various administration routes (i.v., i.p., orally, i.t., i.c.v., transdermally) at various times before the pain testing.
Example 2 reduces the hyperalgesia in the model at a minimally effective dose of 1 mg/kg orally (acute administration, 60 minutes before the test).

rat [2] = test: 6-Hydroxydopamine (6-OH-DA) lesion in the rat, staircase test; format: in vivo; details: oral dose of 1.0 mg/kg bid
Experimental: 8.6-Hydroxydopamine (6-OH-DA) Lesion in the Rat
Degeneration of dopaminergic nigrostriatal and striatopallidal neurotransmission is the main characteristic of Parkinson's disease. The clinical picture of Parkinson's disease can be simulated to a large extent in an animal model in which the neurotoxin 6-OH-DA is injected intracerebrally in rats.
Male rats (Harlan Winkelmann, Germany; weight at start of test: 200-250 g) were used for the experiments described. The experimental animals were housed under controlled conditions (humidity, temperature) with a 12-hour light/dark cycle. Those animals not involved in an experiment had free access to water and feed.
On the day of the operation, 30 minutes before the lesion, pargyline (Sigma, St. Louis, Mo., USA; 50 mg/kg i.p.) and desmethylimipramine HCl (Sigma; 25 mg/kg i.p.) were administered to the animals in order respectively to suppress 6-hydroxydopamine metabolism and prevent uptake of 6-hydroxydopamine in noradrenergic structures. […]
After the operation, the animals were placed on a warm plate and, after regaining consciousness while being monitored, returned to their cage and received feed and water ad libitum. […]
The motor deficits after the lesion were quantified using the following test as described in the respective literature: […]

[3] = Pharmacokinetics in the rat; format: in vivo
Experimental: The bioavailability of the compounds according to the invention, and other pharmacokinetic parameters, can be determined in vivo in the following way:
5. Pharmacokinetics in the Rat
The substance is infused through a Braunüle in a lateral tail vein directly into the blood stream over 15 minutes. A calibrated 20 ml syringe is used for accurate administration of the chosen dose and volume. A Braun Melsungen No. 152440/1 pump is used for the infusion.
The substance is administered as bolus by gavage.
Blood samples are collected from catheterized animals jugular vein) in heparinized tubes. The blood is centrifuged and the plasma is prepared in a suitable manner for analysis (LC-MS-MS). The plasma is stored at <−15° C. until analyzed.
d) Pharmacokinetic Results of Example 2

CB1 receptor = molecular target: T1, CB1 receptor (Rattus norvegicus, UniProt P20272); test: Rat hypothermia agonism test; format: in vivo; details: oral administration
T1 construct: from tissue; host or cells: whole animal (rat), oral dosing
T1 sequence (P20272 whole entry): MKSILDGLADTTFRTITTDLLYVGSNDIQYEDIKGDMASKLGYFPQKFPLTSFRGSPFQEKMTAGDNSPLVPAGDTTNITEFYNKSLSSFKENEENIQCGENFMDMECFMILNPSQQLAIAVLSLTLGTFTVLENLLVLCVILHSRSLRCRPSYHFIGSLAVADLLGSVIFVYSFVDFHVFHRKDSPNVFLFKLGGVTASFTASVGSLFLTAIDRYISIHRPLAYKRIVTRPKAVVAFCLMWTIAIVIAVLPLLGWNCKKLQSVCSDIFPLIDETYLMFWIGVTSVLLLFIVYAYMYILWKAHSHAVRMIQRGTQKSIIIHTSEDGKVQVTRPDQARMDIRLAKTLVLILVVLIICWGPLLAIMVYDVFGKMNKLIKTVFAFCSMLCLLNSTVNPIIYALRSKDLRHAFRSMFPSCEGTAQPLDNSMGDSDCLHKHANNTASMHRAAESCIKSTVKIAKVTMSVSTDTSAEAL
Experimental: The in vivo agonistic effect on the CB1 receptor was examined in the rat hypothermia assay.
Five minutes after determining the basal body temperature via an esophageal temperature probe, the test substance is administered (orally). A control group receives, likewise orally, only the solvent for the test substances (Cremophors EL 1-10%+distilled water). The body temperature is measured 120 and 240 minutes after oral administration. The size of the group for each dose is 5-7 animals (rats).
Rat Hypothermia Agonism Test

[4] = Microsomal stability investigation (rat liver microsomes); format: in vitro ADME; details: predicted from microsomal data
Source text: The metabolic stability of the compounds according to the invention can be found in the following in vitro assay: 4. Microsomal Stability Investigation The metabolic stability of the compounds according to the invention can be measured in rat liver microsomes (in analogy to J. Pharmacol. Exp. Ther. 1997, 283. 46-58). To determine the microsomal stability and extrapolate to the maximum possible bioavailability (Fmax) owing to the first-past effect in the liver (phase 1 reactions), the substance is incubated in low concentration with microsomal protein, with addition of cofactors, at 37° C. for 15 minutes. The incubation and the sampling take place on a modified automatic pipettor from Canberra Packard. Microsomal data (rat liver microsomes) predict a maximum possible availability of up to 100%.

rat CB1 receptor = molecular target: T2, rat CB1 receptor (Rattus norvegicus, UniProt P20272); test: Rat CB1 luciferase reporter gene test; format: cell-based; details: rat CHOCB1 reporter cell line, forskolin-stimulated luciferase activity
T2 construct: expressed in transfected cells; host or cells: CHO (CHOluc9) luciferase reporter cells
T2 sequence (P20272 whole entry): as above
Experimental: 1. Rats CB1 Luciferase Reporter Gene Test
Stock cultures of a rat CHOCB1 reporter cell line were prepared by the method described in WO-A-98/37061, page 55 et seq.
The following test protocol was used for the substance screening: the stock cultures were cultivated in 50% of Dulbecco's modified Eagle medium/50% F-12 (DMEM/F12) with 10% FCS at 37° C. under 10% CO2 and split 1:10 after 2 to 3 days in each case. Test cultures were seeded at 5000cells […] in 96-well plates and cultured at 37° C. for 70 hours. The cultures were then cautiously washed with phosphate-buffered saline and reconstituted with serum-free Ultra-CHO medium (Bio-Whittaker). The substances dissolved in DMSO were diluted 1× in medium and pipetted into the test cultures (maximum DMSO final concentration in test mixture: 0.5%). 20 minutes later, forskolin was added and the cultures were then incubated in an incubator at 37° C. for 3 hours. […] Immediately thereafter luciferase substrate solution (2.5 mM ATP, 0.5 mM luciferin, 0.1 mM coenzyme A, 10 mM tricine, 1.35 mM MgSO4, 15 mM DTT, pH 7.8) and briefly shaken, and the luciferase activity was measured using a Hamamatsu camera system. […]
The IC50 values were calculated using the GraphPadPrism program (Hill equation, specifically: one-site competition).

| Structure (SMILES) | minimally effective dose reducing the hyperalgesia (rat [1]) [mg/kg] | fine coordination of the forepaws in the staircase test (rat [2]) | AUCnorm ([3]; oral, dose 3 mg/kg) [kg·h/L] | Cmax,norm ([3]; oral, dose 3 mg/kg) [kg/L] | F ([3]; oral, dose 3 mg/kg) [%] | clearance ([3]; plasma, iv, dose 0.3 mg/kg) [mL/min/kg] | half-life ([3]; plasma, iv, dose 0.3 mg/kg) [h] | Vd ([3]; plasma, iv, dose 0.3 mg/kg, read-out: Vss) [L/kg] | Tmax ([3]; plasma, oral, dose 3 mg/kg) [h] | half-life ([3]; plasma, oral, dose 3 mg/kg) [h] | ED−1° C. (effective dose for reducing the body temperature by 1° C.) (CB1 receptor) [mg/kg] | maximum possible availability (Fmax) [4] | IC50 (rat CB1 receptor) [nM] |
| --- | --- | --- | --- | --- | --- | --- | --- | --- | --- | --- | --- | --- | --- |
| O=S(=O)(CCCC(F)(F)F)Oc1cccc(-c2cccc(C(F)(F)F)c2)c1 [Example 2] | 1 | improvement in the fine coordination of the forepaws | 0.322 | 0.0674 | 100 | 51.7 | 2.2 | 5.8 | 3 | 1.7 | 5 | up to 100% |  |
| Cc1ccnc(-c2cccc(OS(=O)(=O)CCCC(F)(F)F)c2)c1 [Example 17] |  |  |  |  |  |  |  |  |  |  |  |  | 16 |
| CCCCCS(=O)(=O)Oc1cccc(-c2cccc(C(F)(F)F)c2)c1 [Example 3] |  |  |  |  |  |  |  |  |  |  |  |  | 2.4 |
